Data on 21 compounds can be found in patent US20230183249A1, “NEW TRIAZINOINDOLE COMPOUNDS” (JANSSEN PHARMACEUTICA NV, priority 2020, published 2023).

For orientation: IC50 means the concentration that inhibits the measured activity by half. As usually defined, the EC50 is the concentration needed to bring the measured effect to its halfway point.

One assay concerns the target T1, NLRP3 (Homo sapiens, UniProt Q96P20).
T1 construct: human peripheral blood mononuclear cells (PBMCs) were isolated from blood; endogenous in cells; host or cells: primary human PBMCs from healthy donors
As to the kind of experiment: PBMC assay, IL-1β release after LPS stimulation. It counts as cell-based. Particulars: human PBMCs, 100 ng/ml LPS for 6 hrs, IL-1β in supernatant via MSD; read-out: IL1β IC50. The protocol:
The activity of a compound according to the present invention can be assessed by in vitro methods.
Peripheral venous blood was collected from healthy individuals and human peripheral blood mononuclear cells (PBMCs) were isolated from blood by Ficoll-Histopaque (Sigma-Aldrich, A0561) density gradient centrifugation. After isolation, PBMCs were stored in liquid nitrogen for later use. Upon thawing, PBMC cell viability was determined in growth medium (RPMI media supplemented with 10% fetal bovine serum, 1% Pen-Strep and 1% L-glutamine). […] PBMCs were added at a density of 7.5×10^4 cells per well and incubated for 30 min in a 5% C02 incubator at 37° C. LPS stimulation was performed by addition of 100 ng/ml LPS (final concentration, Invivogen, tlrl-smlps) for 6 hrs followed by collection of cellular supernatant and the analysis of IL-1β (μM) and TNF cytokines levels (μM) via MSD technology according to manufacturers' guidelines (MSD, K151A0H).

For the next assay, the system named is TNF. As to the kind of experiment: PBMC assay, TNF cytokine levels after LPS stimulation. As to conditions: human PBMCs, 100 ng/ml LPS for 6 hrs, TNF in supernatant via MSD. The assay is classed as cell-based. On the procedure:
Peripheral venous blood was collected from healthy individuals and human peripheral blood mononuclear cells (PBMCs) were isolated from blood by Ficoll-Histopaque (Sigma-Aldrich, A0561) density gradient centrifugation. After isolation, PBMCs were stored in liquid nitrogen for later use. Upon thawing, PBMC cell viability was determined in growth medium (RPMI media supplemented with 10% fetal bovine serum, 1% Pen-Strep and 1% L-glutamine). Compounds were spotted in a 1:3 serial dilution in DMSO and diluted to the final concentration in 30 μl medium in 96 well plates (Falcon, 353072). PBMCs were added at a density of 7.5×10^4 cells per well and incubated for 30 min in a 5% C02 incubator at 37° C. LPS stimulation was performed by addition of 100 ng/ml LPS (final concentration, Invivogen, tlrl-smlps) for 6 hrs followed by collection of cellular supernatant and the analysis of IL-1β (μM) and TNF cytokines levels (μM) via MSD technology according to manufacturers' guidelines (MSD, K151A0H).
The IC50 values (for IL-1β) and EC50 values (TNF) were obtained on compounds of the invention/examples, and are depicted in the following table: […]

T1 sequence (Q96P20 whole entry): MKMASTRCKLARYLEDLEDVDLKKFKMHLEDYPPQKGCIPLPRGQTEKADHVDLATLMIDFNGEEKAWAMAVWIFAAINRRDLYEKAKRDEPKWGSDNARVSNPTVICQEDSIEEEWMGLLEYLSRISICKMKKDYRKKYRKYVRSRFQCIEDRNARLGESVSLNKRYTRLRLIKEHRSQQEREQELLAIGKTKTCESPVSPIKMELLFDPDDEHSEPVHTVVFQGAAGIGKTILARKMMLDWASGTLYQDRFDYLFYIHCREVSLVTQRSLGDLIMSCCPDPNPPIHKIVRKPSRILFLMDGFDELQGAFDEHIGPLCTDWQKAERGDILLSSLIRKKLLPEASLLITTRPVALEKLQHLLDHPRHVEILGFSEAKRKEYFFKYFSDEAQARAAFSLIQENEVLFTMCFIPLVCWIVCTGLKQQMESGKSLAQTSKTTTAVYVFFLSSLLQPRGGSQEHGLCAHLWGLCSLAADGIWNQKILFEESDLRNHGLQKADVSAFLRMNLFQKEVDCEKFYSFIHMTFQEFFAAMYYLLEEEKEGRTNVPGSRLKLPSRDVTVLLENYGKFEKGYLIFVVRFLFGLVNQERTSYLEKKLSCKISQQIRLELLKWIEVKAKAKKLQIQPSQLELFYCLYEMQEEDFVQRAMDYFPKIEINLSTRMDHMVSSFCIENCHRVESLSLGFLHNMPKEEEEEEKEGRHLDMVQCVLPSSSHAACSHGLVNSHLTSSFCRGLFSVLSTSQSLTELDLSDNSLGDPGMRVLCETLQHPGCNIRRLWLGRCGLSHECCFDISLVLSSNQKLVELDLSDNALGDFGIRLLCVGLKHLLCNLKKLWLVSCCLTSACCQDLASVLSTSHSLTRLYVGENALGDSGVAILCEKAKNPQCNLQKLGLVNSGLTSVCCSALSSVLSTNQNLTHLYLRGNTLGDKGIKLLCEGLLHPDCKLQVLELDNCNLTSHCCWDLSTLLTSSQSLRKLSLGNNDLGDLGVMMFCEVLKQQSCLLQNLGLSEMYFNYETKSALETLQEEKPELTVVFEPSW

For the compound `O=C(Cn1nc(Cl)n2c(cc3ccccc32)c1=O)Nc1ccncn1` [Final Cpd 1, 2-(4-chloro-1-oxo-[1,2,4]triazino[4,5-a]indol-2-yl)-N-pyrimidin-4-yl-acetamide], at NLRP3, the IC50 stood at 0.62 µM. Moreover, the EC50 with TNF is more than 10 µM.

Consider `O=C(Cn1ncn2c(cc3ccccc32)c1=O)Nc1ccncn1` [Final Cpd 2], for which the IC50 on NLRP3 was determined as 1.89 µM. This compound displayed an EC50 with TNF of more than 10 µM.

With `O=C(Cn1ncn2c(cc3ccc(F)cc32)c1=O)Nc1ccncn1` [Final Cpd 3], the IC50 on NLRP3 turned out to be 1.58 µM. The compound also had an EC50 in the assay with TNF of more than 10 µM.

For `O=C(Cn1nc(C2CCC2)n2c(cc3ccccc32)c1=O)Nc1ccncn1` [Final Cpd 4], the half-maximal inhibitory concentration (IC50) at NLRP3 stood at 1.54 µM. In the assay with TNF, the EC50 was more than 10 µM.

On to `O=C(Cn1nc(C(F)F)n2c(cc3ccccc32)c1=O)Nc1ccncn1` [Final Cpd 5], for which the IC50 at NLRP3 was 0.47 µM. For the same compound, in the assay with TNF, the EC50 was more than 10 µM.

For `CC(F)(F)c1nn(CC(=O)Nc2ccncn2)c(=O)c2cc3ccccc3n12` [Final Cpd 6], at NLRP3, the IC50 is more than 10 µM. Also, the EC50 in the assay with TNF is more than 10 µM.

On to `N#Cc1nn(CC(=O)Nc2ccncn2)c(=O)c2cc3ccccc3n12` [Final Cpd 7], for which the IC50 at NLRP3 was found to be 3.5 µM. The same compound had an EC50 with TNF of more than 10 µM.

For the compound `O=C(Cn1nc(-c2ncco2)n2c(cc3ccccc32)c1=O)Nc1ccncn1` [Final Cpd 8], the half-maximal inhibitory concentration (IC50) on NLRP3 worked out at 5.8 µM. This compound had an EC50 in the assay on TNF of more than 10 µM.

As to `O=C(Cn1nc(C(F)(F)F)n2c(cc3ccccc32)c1=O)Nc1ccncn1` [Final Cpd 9], the IC50 on NLRP3 is 1.91 µM. In the assay with TNF, this compound gave an EC50 of more than 10 µM.

On to `COc1ncccc1NC(=O)Cn1nc(C(C)C)n2c(cc3ccccc32)c1=O` [Final Cpd 12], for which, at NLRP3, the IC50 is 0.41 µM. In addition, the EC50 in the assay on TNF is more than 10 µM.

As for `Cc1cc(NC(=O)Cn2nc(C(C)C)n3c(cc4ccccc43)c2=O)ccn1` [Final Cpd 13], the IC50 at NLRP3 was found to be 0.15 µM. For the same compound, in the assay on TNF, the EC50 was more than 10 µM.

Regarding `CC(C)c1nn(CC(=O)Nc2ccncn2)c(=O)c2cc3ccccc3n12` [Final Cpd 14], at NLRP3, the IC50 turned out to be 0.17 µM. The compound further displayed an EC50 in the assay with TNF of more than 10 µM.

In the case of `O=C(Cn1nc(C2CC2)n2c(cc3ccccc32)c1=O)Nc1ccncn1` [Final Cpd 18], at NLRP3, the half-maximal inhibitory concentration (IC50) is 0.76 µM. In the assay on TNF, the EC50 was more than 10 µM.

As for `CN(C)c1nn(CC(=O)NC2CCOCC2)c(=O)c2cc3ccccc3n12` [Final Cpd 20], at NLRP3, the IC50 was found to be 0.31 µM. Also, the EC50 with TNF was more than 10 µM.

Consider `CN(C)c1nn(CC(=O)N[C@H]2CC[C@H](O)CC2)c(=O)c2cc3ccccc3n12` [Final Cpd 21], for which, at NLRP3, the IC50 was found to be 0.39 µM. Further, the concentration giving a half-maximal response (EC50) in the assay with TNF is more than 10 µM.

With `CC(O)c1nn(CC(=O)Nc2ccncn2)c(=O)c2cc3ccccc3n12` (stereo not drawn) [Final Cpd 22, 2-[4-(1-hydroxyethyl)-1-oxo-[1,2,4]triazino[4,5-a]indol-2-yl]-N-pyrimidin-4-yl-acetamide], on NLRP3, the IC50 was determined as 1.44 µM. The EC50 with TNF is more than 10 µM.

On to `Cc1nn(CC(=O)NC2CC2)c(=O)c2cc3ccccc3n12` [Final Cpd 23, N-cyclopropyl-2-(4-methyl-1-oxo-[1,2,4]triazino[4,5-a]indol-2-yl)acetamide], for which the IC50 on NLRP3 was determined as 9.12 µM. This compound yielded an EC50 with TNF of more than 10 µM.

With `COc1nn(CC(=O)NC2CCOCC2)c(=O)c2cc3ccccc3n12` [Final Cpd 24, 2-(4-methoxy-1-oxo-[1,2,4]triazino[4,5-a]indol-2-yl)-N-tetrahydropyran-4-yl-acetamide], the IC50 at NLRP3 was 1.17 µM. In the assay on TNF, the EC50 was more than 10 µM.

For `O=C(Cn1nc(C2CCCC2)n2c(cc3ccccc32)c1=O)NC1CCOCC1` [Final Cpd 25], the IC50 on NLRP3 was more than 10 µM. For the same compound, the EC50 in the assay with TNF was more than 20 µM.

On to `CC(C)Cc1nn(CC(=O)NC2CCOCC2)c(=O)c2cc3ccccc3n12` [Final Cpd 26], for which the IC50 on NLRP3 is more than 10 µM. For the same compound, the EC50 with TNF was more than 10 µM.

Turning to `O=C(Cn1nc(-c2cccs2)n2c(cc3ccccc32)c1=O)NC1CCOCC1` [Final Cpd 27], the IC50 on NLRP3 was more than 10 µM. This compound also showed a half-maximal effective concentration (EC50) in the assay on TNF of more than 10 µM.
